Measured values from patent US7053053B2, “Humanin-like peptide and use thereof” (Takeda Chemical Industries, Ltd., priority 2001, dated 2006).

Columns and labels:
[1] = tested on: nerve cells; conditions: induced by the addition of β amyloid; Proc. Natl. Acad. Sci. USA 98: 6336–6341, 2001; cited from earlier work
[2] = tested on: nerve cells into which the causative gene of familial Alzheimer's disease is introduced; conditions: nerve cells with the causative gene of familial Alzheimer's disease introduced; Proc. Natl. Acad. Sci. USA 98: 6336–6341, 2001; cited from earlier work
[3] = tested on: rat adrenal medulla-derived pheochromocytoma cell PC12h; assay: Inhibition of glutamic acid-induced cell death of PC12h cells (LDH activity of cell extract); format: cell-based; conditions: for cell survival ratio: 1 mM glutamic acid, 72 hrs, survival in glutamic acid non-added plot = 100%, peptide not-added plot 34.0%
Experimental: Inhibitory Activity of the Humanin-Like Peptide against Glutanic Acid-Induced Cell Death of Rat Adrenal Medulla-Derived Pheochromocytoma Cell PC12h
PC12h cells (supplied by Prof. Hiroshi Hatanaka, Institute for Protein Research, Osaka University; Hatanaka, H., Brain Research 222: 225–233, 1981) were plated at a density of 2×10^4 cells/cm^2 in collagen-coated 96-well plates (Iwaki) containing Dulbecco's modified Eagle's medium (hereinafter referred to as “DMEM”) containing 10% fetal bovine serum and 5% horse serum. After 24 hrs, the medium was exchanged for 100 μl of DMEM containing […] HEPES (pH 7.5). At the same time, various concentrations of the humanin-like peptide prepared in Example 2 (SEQ ID NO: 4) and glutamic acid to give a concentration of 1 mM were added to the medium. After 72 hrs, cells were lysed with 100 μl of phosphate buffered saline containing 0.2% Tween 20. Then, the lactate dehydrogenase (LDH) activity of the cell extract was determined with LDH Cytotoxic Test WAKO (Wako Purechemical Industries).

| Substance | death of nerve cells [1] | death of nerve cells [2] | glutamic acid-induced cell death ([3]; PC12h cells, conclusion in words) | cell survival ratio ([3]; humanin-like peptide 1 μM) [%] | cell survival ratio ([3]; humanin-like peptide 10 μM) [%] |
| --- | --- | --- | --- | --- | --- |
| humanin: peptide consisting of 24 residues (WO 01/21787), encoded by a gene cloned from the occipital lobe by Hashimoto et al. (MAPRGFSCLLLLTSEIDLPVKRRA; Humanin; UniProt Q8IVG9 1-24, looked up) | inhibited | inhibited | – | – | – |
| humanin-like peptide: polypeptide comprising the amino acid sequence as shown in SEQ ID NO: 4; 24 residues, 6 different from humanin; synthesised in Example 2 (MARRGFSCLLLSTTATDLPVKRRT; Human) | – | – | inhibited | 59.3 | 74.6 |
